Results from US11498903B2 (BRISTOL-MYERS SQUIBB COMPANY, priority 2017, dated 2022).
Read-outs that look alike come from different tables or passages of the source.

Target: T1, human APJ receptor (Homo sapiens, UniProt P35414)
T1 construct: expressed in transfected cells
T1 sequence (P35414 1-380): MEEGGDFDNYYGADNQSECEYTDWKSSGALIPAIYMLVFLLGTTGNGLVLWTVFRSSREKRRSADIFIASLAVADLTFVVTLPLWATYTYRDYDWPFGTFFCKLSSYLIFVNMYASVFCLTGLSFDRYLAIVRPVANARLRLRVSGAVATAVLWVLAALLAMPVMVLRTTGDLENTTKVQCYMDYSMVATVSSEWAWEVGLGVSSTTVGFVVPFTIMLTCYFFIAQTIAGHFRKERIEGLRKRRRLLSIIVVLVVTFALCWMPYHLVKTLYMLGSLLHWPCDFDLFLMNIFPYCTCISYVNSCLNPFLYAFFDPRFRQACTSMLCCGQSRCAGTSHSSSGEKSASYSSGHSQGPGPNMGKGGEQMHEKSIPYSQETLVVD
Test: Intracellular cAMP accumulation assay (APJ hcAMP, HTRF)
Assay type: cell-based
Method: Intracellular cAMP Accumulation Assay
HEK293 cells stably expressing human APJ receptor were used to assess the activity of compounds. Cultured cells were detached and resuspended in the cAMP Homogeneous Time-Resolved Fluorescence (HTRF) assay buffer (Cisbio cat; #62AM4PEJ). The assay was performed in 384-well assay plates (Perkin-Elmer; cat #6008289) according to assay protocol provided by the manufacturer. Serial dilutions of a compound together with assay buffer containing […] IBMX and 2 μM forskolin were added to each well containing 5,000 cells and incubated for 30 minutes at room temperature. Subsequently, cAMP D2 reagent was added in the lysis buffer followed by the EuK antibody (Cisbio; cat #62AM4PEJ) and incubated for 60 min. The fluorescence emission ratio was measured using fluorometer. The intracellular cAMP concentrations (compound-stimulated inhibition of forskolin-mediated cAMP production) were calculated by extrapolation from a standard curve using known cAMP concentrations. The EC50 values were obtained by fitting the data to a sigmoidal concentration-response curve with variable slope. The maximal achievable inhibition of forskolin-induced cAMP levels (Ymax) for each compound was expressed as relative percentage of inhibition attained using pyroglutamated apelin-13 ((Pyrl)apelin-13) peptide, which was set to 100%.
The exemplified Examples disclosed below were tested in the APJ in vitro assays described above and were found having human APJ cyclic AMP (hcAMP) activity. Table 1 lists hcAMP EC50 values measured for the following examples. Ranges are as followε: A=0.0-10 nM; B=10.01-100 nM; C=101-500 nM.

[1] = Table 3, HEK293 cells stably expressing human APJ receptor, read-out: APJ cAMP Human EC50
[2] = Table 1, HEK293 cells stably expressing human APJ receptor, inhibition of forskolin-mediated cAMP production, read-out: APJ hcAMP EC50
[3] = human APJ, cAMP, potency range class, read-out: APJ cAMP Human EC50

EC50 [1] [nM]	EC50 [2] [nM]	EC50 [3] [nM]	SMILES
10 to 100			CCC[C@@H](NC(=O)c1ccc(-c2c(Cl)cccc2-c2nc(C)c(-c3ccccc3)[nH]2)c(C(=O)O)c1)c1ccccc1 (atropisomer, axis not shown) [Example 106, (S)-2′-chloro-6′-(4-methyl-5-phenyl-1H-imidazol-2-yl)-4-{[(1R)-1-phenylbutyl]carbamoyl}-[1,1′-biphenyl]-2-carboxylic acid]
10 to 100			CCC[C@@H](NC(=O)c1ccc(-c2c(Cl)cccc2-c2ncc(-c3ccncc3)[nH]2)c(C(=O)O)c1)c1ccccc1 (atropisomer, axis not shown) [Example 107, (S)-2′-chloro-4-{[(1R)-1-phenylbutyl]carbamoyl}-6′-[5-(pyridin-4-yl)-1H-imidazol-2-yl]-[1,1′-biphenyl]-2-carboxylic acid]
< 10			CCC[C@@H](NC(=O)c1ccc(-c2c(Cl)cccc2-c2nc3cc(Cl)c(F)cc3[nH]2)c(C(=O)O)c1)c1ccccc1 (atropisomer, axis not shown) [Example 108, (S)-2′-chloro-6′-(5-chloro-6-fluoro-1H-1,3-benzodiazol-2-yl)-4-{[(1R)-1-phenylbutyl]carbamoyl}-[1,1′-biphenyl]-2-carboxylic acid]
10 to 100			CCC[C@@H](NC(=O)c1ccc(-c2c(Cl)cccc2-c2nc3cc(O)ccc3[nH]2)c(C(=O)OC)c1)c1ccccc1 (atropisomer, axis not shown) [Example 128, (S)-methyl 2′-chloro-6′-(5-hydroxy-1H-1,3-benzodiazol-2-yl)-4-{[(1R)-1-phenylbutyl]carbamoyl}-[1,1′-biphenyl]-2-carboxylate]
< 10	< 10		CCC[C@@H](NC(=O)c1ccc(-c2c(Cl)cccc2-c2nc3cc(OC)ccc3[nH]2)c(C(=O)O)c1)c1ccccc1 (atropisomer, axis not shown) [Example 132, (S)-2′-chloro-6′-(5-methoxy-1H-1,3-benzodiazol-2-yl)-4-{[(1R)-1-phenylbutyl]carbamoyl}-[1,1′-biphenyl]-2-carboxylic acid]
< 10			CCC[C@@H](NC(=O)c1ccc(-c2c(Cl)cccc2-c2nc3cnccc3[nH]2)c(C(=O)O)c1)c1ccccc1 (atropisomer, axis not shown) [Example 133, (S)-2′-chloro-6′-{1H-imidazo[4,5-c]pyridin-2-yl}-4-{[(1R)-1-phenylbutyl]carbamoyl}-[1,1′-biphenyl]-2-carboxylic acid]
< 10	< 10		CCC[C@@H](NC(=O)c1ccc(-c2c(Cl)cccc2-c2nc3cc(OC(C)=O)ccc3[nH]2)c(C(=O)O)c1)c1ccccc1 (atropisomer, axis not shown) [Example 134, (S)-2′-[5-(acetyloxy)-1H-1,3-benzodiazol-2-yl]-6′-chloro-4-{[(1R)-1-phenylbutyl]carbamoyl}-[1,1′-biphenyl]-2-carboxylic acid]
10 to 100			CCC[C@@H](NC(=O)c1ccc(-c2c(Cl)cccc2-c2nc3cc(O)ccc3[nH]2)c(C(=O)O)c1)c1ccccc1 (atropisomer, axis not shown) [Example 135, (S)-2′-chloro-6′-(5-hydroxy-1H-1,3-benzodiazol-2-yl)-4-{[(1R)-1-phenylbutyl]carbamoyl}-[1,1′-biphenyl]-2-carboxylic acid]
101 to 500			CCC[C@@H](NC(=O)c1ccc(-c2c(Cl)cccc2-c2nc3cc(OC(C)=O)ccc3[nH]2)c(C(=O)O)c1)c1ccccc1 (atropisomer, axis not shown) [Example 136, (S)-2′-[5-(acetyloxy)-1H-1,3-benzodiazol-2-yl]-6′-chloro-4-{[(1R)-1-phenylbutyl]carbamoyl}-[1,1′-biphenyl]-2-carboxylic acid]
10 to 100			CCC[C@@H](NC(=O)c1ccc(-c2c(Cl)cccc2-c2nc3ccccc3[nH]2)c(C(=O)O)c1)c1ccccc1 (atropisomer, axis not shown) [Example 141, (R)-2′-(1H-1,3-benzodiazol-2-yl)-6′-chloro-4-{[(1R)-1-phenylbutyl]carbamoyl}-[1,1′-biphenyl]-2-carboxylic acid]
< 10	< 10		COC[C@@H](NC(=O)c1ccc(-c2c(Cl)cccc2-c2nc3ccccc3[nH]2)c(C(=O)O)c1)c1ccccc1 (atropisomer, axis not shown) [Example 150, (S)-2′-(1H-1,3-benzodiazol-2-yl)-6′-chloro-4-{[(1S)-2-methoxy-1-phenylethyl]carbamoyl}-[1,1′-biphenyl]-2-carboxylic acid]
< 10	< 10		CC(C)(O)C[C@@H](NC(=O)c1ccc(-c2c(Cl)cccc2-c2nc3ccccc3[nH]2)c(C(=O)O)c1)c1ccccc1 (atropisomer, axis not shown) [Example 151, (S)-2′-(1H-1,3-benzodiazol-2-yl)-6′-chloro-4-{[(1R)-3-hydroxy-3-methyl-1-phenylbutyl]carbamoyl}-[1,1′-biphenyl]-2-carboxylic acid]
10 to 100			CCC[C@H](NC(=O)c1ccc(-c2c(Cl)cccc2-c2nc3ccccc3[nH]2)c(C(=O)O)c1)c1ccccc1 (atropisomer, axis not shown) [Example 152, (S)-2′-(1H-1,3-benzodiazol-2-yl)-6′-chloro-4-{[(1S)-1-phenylbutyl]carbamoyl}-[1,1′-biphenyl]-2-carboxylic acid]
< 10			COC[C@@H](NC(=O)c1ccc(-c2c(Cl)cccc2-c2nc3cc(OC)c(F)cc3[nH]2)c(C(=O)O)c1)c1ccccc1 (atropisomer, axis not shown) [Example 154, (S)-2′-chloro-6′-(6-fluoro-5-methoxy-1H-1,3-benzodiazol-2-yl)-4-{[(1S)-2-methoxy-1-phenylethyl]carbamoyl}-[1,1′-biphenyl]-2-carboxylic acid]
< 10			CCC[C@@H](NC(=O)c1ccc(-c2c(Cl)cccc2-c2nc3cc(O)ccc3[nH]2)c(C(=O)O)c1)c1ccccc1 (atropisomer, axis not shown) [Example 155, (S)-2′-chloro-6′-(5-hydroxy-1H-1,3-benzodiazol-2-yl)-4-{[(1R)-1-phenylbutyl]carbamoyl}-[1,1′-biphenyl]-2-carboxylic acid]
< 10	< 10		O=C(N[C@H](CN1CCOCC1)c1ccccc1)c1ccc(-c2c(Cl)cccc2-c2nc3ccccc3[nH]2)c(C(=O)O)c1 (atropisomer, axis not shown) [Example 156, (S)-2′-(1H-1,3-benzodiazol-2-yl)-6′-chloro-4-{[(1S)-2-(morpholin-4-yl)-1-phenylethyl]carbamoyl}-[1,1′-biphenyl]-2-carboxylic acid]
	< 10	< 10	CCC[C@@H](NC(=O)c1ccc(-c2c(Cl)cccc2-c2nc3ccc(F)c(F)c3[nH]2)c(C(=O)O)c1)C1CCCCC1 (atropisomer, axis not shown) [Example 159, (S)-2′-chloro-4-{[(1R)-1-cyclohexylbutyl]carbamoyl}-6′-(6,7-difluoro-1H-1,3-benzodiazol-2-yl)-[1,1′-biphenyl]-2-carboxylic acid]
	< 10	< 10	CCC[C@@H](NC(=O)c1ccc(-c2c(Cl)cccc2-c2nc3cc(F)c(F)cc3[nH]2)c(C(=O)O)c1)C1CCCCC1 (atropisomer, axis not shown) [Example 162, (S)-2′-chloro-4-{[(1R)-1-cyclohexylbutyl]carbamoyl}-6′-(5,6-difluoro-1H-1,3-benzodiazol-2-yl)-[1,1′-biphenyl]-2-carboxylic acid]
